From ChEMBL document CHEMBL1201862, “PubChem BioAssay data set” (2004)
The source made the active and inactive calls.

What was measured:
CAAX prenyl protease 2 [1] = target: CAAX prenyl protease 2 (Homo sapiens, UniProt Q9Y256); test: human Rce1 protease inhibitors, dose response, biochemical, yeast membranes, quenched-peptide fluorescence, cherry-pick (AID 588849)
Trypsin = Trypsin (Sus scrofa, UniProt P00761); test: porcine trypsin inhibitors, dose response, selectivity assay for Rce1 protease inhibitor project, biochemical, quenched peptide fluorescence, cherry-pick (AID 488789)
CAAX prenyl protease 2 [2] = target: CAAX prenyl protease 2 (Saccharomyces cerevisiae S288c, UniProt Q03530); assay type: biochemical
Vero [3] = test: West Nile virus CPE inhibition, SAR follow-up, cell-based, synthesized analogs (AID 2238); assay type: functional; details: Chlorocebus sabaeus
Vero [4] = test: Vero E6 cell cytotoxicity, SAR follow-up, cytotoxicity control for West Nile virus antiviral project, synthesized analogs (AID 2244); assay type: functional; details: Chlorocebus sabaeus
[5] = target: T1, Replicative DNA helicase DnaB (Mycobacterium tuberculosis, UniProt P9WMR3); test: DnaB intein splicing inhibitors, dose response, biochemical, cell-free fluorescence (AID 449749); assay type: functional
T1 sequence (P9WMR3 whole entry): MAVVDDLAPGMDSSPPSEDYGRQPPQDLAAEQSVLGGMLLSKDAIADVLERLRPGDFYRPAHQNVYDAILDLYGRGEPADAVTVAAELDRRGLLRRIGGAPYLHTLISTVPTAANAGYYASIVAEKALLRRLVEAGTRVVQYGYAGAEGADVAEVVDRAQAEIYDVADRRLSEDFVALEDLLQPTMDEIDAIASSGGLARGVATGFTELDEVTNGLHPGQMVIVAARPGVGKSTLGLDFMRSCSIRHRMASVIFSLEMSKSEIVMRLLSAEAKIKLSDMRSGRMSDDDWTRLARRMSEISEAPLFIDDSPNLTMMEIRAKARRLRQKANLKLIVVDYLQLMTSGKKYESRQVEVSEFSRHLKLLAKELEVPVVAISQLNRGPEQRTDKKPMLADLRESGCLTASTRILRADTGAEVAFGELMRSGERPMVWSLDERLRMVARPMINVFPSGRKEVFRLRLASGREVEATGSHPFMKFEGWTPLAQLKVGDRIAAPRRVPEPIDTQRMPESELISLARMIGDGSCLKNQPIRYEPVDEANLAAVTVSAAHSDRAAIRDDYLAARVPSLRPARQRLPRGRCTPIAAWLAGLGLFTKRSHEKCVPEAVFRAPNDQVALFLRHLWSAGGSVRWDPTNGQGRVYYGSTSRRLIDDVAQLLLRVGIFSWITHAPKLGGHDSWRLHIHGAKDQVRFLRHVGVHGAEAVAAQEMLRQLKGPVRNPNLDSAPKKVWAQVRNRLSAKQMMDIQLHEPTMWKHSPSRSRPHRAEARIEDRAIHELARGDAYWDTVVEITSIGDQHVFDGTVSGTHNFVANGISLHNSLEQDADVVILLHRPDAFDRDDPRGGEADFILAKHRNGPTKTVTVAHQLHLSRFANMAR

[6] = Intein inhibitors as potential Tuberculosis drugs, a cytotoxicity screen. [Related pubchem assays (depositor defined):AID2221, AID2223, AID434968, AID435010, AID449749, AID449750, AID489010]; assay type: functional
Protein RecA = target: T2, Protein RecA (Mycobacterium tuberculosis, UniProt P9WHJ3); test: Fluorescence Cell-Free Homogeneous Dose Retest to Identify Inhibitors of RecA-Intein Splicing Activity. [Related pubchem assays (depositor defined):AID2097, AID2223, AID489010, AID492950]; assay type: functional
T2 sequence (P9WHJ3 whole entry): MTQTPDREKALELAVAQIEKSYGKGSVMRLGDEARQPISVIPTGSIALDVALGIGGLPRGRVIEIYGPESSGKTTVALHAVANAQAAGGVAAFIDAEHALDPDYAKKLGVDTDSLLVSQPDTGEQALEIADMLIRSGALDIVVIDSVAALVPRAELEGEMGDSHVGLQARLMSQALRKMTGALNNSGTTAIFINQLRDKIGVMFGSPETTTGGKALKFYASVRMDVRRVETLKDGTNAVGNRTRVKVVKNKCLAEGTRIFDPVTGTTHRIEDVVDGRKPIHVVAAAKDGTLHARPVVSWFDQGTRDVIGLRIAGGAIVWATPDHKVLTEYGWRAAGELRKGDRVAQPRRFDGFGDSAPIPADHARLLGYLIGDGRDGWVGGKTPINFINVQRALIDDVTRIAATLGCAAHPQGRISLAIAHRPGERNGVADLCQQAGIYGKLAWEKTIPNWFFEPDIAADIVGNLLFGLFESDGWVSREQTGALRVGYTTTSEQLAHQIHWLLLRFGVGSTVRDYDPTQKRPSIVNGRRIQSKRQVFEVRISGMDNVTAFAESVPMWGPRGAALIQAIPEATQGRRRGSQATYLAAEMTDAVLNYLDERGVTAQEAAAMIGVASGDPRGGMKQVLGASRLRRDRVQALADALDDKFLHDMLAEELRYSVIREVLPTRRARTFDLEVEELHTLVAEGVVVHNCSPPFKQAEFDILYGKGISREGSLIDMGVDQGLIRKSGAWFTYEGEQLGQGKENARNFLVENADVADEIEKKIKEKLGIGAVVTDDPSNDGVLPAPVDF

Large T antigen = Large T antigen (Simian virus 40, UniProt P03070); assay type: functional, Betapolyomavirus macacae;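 also: Confirmatory-stage PubChem screen for compounds that inhibit SV40 T antigen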
[7] = target: T3, Voltage-gated N-type calcium channel alpha-1B subunit/Amyloid beta A4 precursor protein-binding family A member 1 (Homo sapiens, UniProt Q00975+Q02410); assay type: protein assay
[8] = target: T3, Voltage-gated N-type calcium channel alpha-1B subunit/Amyloid beta A4 precursor protein-binding family A member 1; assay type: protein assay; remark: listed apart in the source

T3 sequence (Q00975 whole entry): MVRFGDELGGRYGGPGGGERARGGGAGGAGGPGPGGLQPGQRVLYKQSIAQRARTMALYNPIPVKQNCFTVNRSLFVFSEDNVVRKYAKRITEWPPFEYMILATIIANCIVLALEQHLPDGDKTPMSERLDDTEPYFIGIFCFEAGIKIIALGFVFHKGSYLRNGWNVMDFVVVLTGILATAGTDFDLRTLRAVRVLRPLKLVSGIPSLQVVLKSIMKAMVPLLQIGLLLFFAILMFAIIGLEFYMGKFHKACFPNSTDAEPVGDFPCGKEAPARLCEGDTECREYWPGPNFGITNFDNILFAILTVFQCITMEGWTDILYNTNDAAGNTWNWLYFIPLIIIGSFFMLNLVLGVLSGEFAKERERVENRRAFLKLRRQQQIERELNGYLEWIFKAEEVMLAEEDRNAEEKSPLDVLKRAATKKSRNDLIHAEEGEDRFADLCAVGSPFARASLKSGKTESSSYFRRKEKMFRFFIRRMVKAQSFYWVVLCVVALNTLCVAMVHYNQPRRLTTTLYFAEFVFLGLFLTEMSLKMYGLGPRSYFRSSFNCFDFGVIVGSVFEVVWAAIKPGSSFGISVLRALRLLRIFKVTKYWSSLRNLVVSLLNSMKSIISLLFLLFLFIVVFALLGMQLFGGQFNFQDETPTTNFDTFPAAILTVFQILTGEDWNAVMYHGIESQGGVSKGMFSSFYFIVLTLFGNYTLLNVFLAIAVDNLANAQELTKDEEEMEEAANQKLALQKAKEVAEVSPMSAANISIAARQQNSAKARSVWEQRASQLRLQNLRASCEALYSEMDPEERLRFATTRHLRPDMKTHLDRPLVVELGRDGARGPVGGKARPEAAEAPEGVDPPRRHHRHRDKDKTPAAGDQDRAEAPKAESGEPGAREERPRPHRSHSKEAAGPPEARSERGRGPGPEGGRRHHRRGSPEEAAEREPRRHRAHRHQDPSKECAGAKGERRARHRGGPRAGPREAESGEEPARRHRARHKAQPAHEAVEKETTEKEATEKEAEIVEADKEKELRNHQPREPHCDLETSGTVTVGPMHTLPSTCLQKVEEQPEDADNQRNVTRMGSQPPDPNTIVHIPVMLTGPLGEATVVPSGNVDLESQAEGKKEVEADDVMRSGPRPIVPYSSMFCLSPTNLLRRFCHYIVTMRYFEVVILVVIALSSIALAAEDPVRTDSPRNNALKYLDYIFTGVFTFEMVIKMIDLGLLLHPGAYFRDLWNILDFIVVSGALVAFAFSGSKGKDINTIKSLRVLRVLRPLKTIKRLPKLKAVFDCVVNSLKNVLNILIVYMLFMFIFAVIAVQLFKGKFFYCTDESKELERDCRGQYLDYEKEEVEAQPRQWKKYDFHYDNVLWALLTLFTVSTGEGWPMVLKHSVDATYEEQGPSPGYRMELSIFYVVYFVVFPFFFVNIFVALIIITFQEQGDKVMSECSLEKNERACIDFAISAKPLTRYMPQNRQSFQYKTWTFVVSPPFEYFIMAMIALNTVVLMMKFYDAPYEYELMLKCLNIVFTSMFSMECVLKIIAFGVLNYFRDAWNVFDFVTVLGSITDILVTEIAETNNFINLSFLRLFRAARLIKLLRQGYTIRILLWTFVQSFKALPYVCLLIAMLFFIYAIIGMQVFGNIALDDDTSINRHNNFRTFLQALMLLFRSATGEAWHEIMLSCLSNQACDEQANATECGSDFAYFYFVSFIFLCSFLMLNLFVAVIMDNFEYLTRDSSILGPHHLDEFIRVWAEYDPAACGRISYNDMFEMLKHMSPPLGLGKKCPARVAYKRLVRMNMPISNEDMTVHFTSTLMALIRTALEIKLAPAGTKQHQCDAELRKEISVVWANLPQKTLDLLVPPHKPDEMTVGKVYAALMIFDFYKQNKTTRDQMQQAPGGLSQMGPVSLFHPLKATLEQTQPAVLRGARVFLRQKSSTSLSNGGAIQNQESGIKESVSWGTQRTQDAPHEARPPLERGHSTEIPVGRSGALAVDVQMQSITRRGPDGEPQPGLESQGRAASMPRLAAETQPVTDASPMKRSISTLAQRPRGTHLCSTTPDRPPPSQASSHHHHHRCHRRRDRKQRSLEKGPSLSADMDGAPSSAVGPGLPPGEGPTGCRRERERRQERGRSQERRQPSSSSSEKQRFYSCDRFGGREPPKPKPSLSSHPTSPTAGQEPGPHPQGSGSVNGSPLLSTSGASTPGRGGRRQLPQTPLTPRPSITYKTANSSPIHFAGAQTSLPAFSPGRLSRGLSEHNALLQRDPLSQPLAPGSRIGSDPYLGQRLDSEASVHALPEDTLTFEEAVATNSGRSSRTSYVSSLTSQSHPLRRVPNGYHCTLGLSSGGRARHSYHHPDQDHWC
T3 sequence (Q02410 whole entry): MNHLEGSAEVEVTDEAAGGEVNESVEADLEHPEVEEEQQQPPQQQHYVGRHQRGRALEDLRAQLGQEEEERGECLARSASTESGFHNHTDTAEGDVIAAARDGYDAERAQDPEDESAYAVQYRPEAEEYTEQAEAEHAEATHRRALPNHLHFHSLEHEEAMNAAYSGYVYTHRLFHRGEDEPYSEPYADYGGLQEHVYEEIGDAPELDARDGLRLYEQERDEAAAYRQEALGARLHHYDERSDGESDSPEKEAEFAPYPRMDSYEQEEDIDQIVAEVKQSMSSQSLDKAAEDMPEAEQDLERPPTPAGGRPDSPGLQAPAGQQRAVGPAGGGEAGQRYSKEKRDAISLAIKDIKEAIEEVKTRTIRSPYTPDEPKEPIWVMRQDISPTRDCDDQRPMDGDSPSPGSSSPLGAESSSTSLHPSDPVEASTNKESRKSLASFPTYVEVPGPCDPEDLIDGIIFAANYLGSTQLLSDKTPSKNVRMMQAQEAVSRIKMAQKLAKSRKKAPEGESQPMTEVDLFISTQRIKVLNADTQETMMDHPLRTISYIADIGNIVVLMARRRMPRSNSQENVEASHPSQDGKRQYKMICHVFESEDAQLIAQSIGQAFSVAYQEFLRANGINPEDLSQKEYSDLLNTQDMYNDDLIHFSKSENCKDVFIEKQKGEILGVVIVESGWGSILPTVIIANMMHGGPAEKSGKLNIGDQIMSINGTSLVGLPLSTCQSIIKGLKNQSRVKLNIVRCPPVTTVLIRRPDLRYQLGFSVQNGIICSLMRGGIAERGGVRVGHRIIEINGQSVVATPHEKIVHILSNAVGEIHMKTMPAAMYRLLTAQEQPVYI
Sequence of Trypsin (P00761 whole entry): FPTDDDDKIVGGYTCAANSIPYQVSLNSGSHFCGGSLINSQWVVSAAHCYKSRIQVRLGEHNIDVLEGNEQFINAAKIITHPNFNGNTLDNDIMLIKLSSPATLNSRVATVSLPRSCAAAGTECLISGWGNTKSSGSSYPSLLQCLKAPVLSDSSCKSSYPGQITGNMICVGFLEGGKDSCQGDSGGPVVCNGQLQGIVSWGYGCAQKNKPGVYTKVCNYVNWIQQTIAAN
Sequence of Large T antigen (P03070 whole entry): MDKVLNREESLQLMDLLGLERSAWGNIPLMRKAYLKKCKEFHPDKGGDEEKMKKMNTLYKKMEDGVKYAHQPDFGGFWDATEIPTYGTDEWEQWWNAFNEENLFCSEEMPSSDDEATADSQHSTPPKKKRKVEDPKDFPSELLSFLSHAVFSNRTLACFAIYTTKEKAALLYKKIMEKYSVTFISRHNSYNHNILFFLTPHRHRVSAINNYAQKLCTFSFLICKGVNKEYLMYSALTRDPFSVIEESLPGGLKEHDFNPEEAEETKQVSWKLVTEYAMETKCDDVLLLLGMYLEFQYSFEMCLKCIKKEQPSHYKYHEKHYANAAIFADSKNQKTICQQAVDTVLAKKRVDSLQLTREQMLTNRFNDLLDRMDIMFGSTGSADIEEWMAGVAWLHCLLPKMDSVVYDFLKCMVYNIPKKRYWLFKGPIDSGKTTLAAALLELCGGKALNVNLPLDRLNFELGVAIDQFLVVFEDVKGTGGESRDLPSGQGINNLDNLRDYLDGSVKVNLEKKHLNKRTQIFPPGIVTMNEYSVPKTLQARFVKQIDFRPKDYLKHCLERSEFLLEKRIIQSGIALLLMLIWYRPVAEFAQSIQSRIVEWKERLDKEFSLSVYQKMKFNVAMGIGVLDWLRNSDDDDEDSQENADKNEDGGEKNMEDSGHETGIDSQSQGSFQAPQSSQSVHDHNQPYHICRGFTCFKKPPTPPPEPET
Sequence of CAAX prenyl protease 2 (Homo sapiens, UniProt Q9Y256) (Q9Y256 whole entry): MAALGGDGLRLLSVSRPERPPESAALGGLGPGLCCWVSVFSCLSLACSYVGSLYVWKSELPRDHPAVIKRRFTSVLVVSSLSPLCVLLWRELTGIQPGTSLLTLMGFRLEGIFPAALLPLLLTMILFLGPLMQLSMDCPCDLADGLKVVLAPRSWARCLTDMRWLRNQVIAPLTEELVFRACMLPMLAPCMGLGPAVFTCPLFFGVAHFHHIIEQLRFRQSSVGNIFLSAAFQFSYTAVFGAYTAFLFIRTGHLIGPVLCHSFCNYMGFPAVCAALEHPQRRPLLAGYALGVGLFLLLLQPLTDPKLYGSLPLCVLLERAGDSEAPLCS
Sequence of CAAX prenyl protease 2 (Saccharomyces cerevisiae S288c, UniProt Q03530) (Q03530 whole entry): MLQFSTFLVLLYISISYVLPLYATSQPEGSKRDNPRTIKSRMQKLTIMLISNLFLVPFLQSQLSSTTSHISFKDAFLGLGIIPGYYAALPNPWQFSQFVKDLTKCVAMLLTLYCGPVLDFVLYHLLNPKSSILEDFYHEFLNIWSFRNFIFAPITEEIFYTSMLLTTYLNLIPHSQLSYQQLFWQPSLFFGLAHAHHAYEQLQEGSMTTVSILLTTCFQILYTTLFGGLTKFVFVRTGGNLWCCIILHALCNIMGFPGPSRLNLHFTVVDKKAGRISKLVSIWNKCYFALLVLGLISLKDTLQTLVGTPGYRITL

## COc1ccc(-c2cc3ccc(OCc4nn[nH]n4)cc3oc2=O)cc1OC
CAAX prenyl protease 2 [1]
  AC50: 1.71 µM (active)
Trypsin
  AC50: 2.34 µM (active)
CAAX prenyl protease 2 [2]
  AC50: 20.3 µM (active)

## COc1ccc(-c2csc(N(CCCN(C)C)C(=O)c3ccccc3C)n2)cc1
Vero [3]
  IC50: 76.6 µM (active)
Vero [4]
  CC50: 63.2 µM (active)

## O=C(CCl)N1c2ccccc2OCC1c1ccccc1 (stereo unspecified)
[5]
  AC50: 2.58 µM (active)
[6]
  CC50: 6.48 µM (active)
Protein RecA
  EC50: 0.606 µM (active)

## N#Cc1c(O)nsc1Nc1ccccc1C(F)(F)F
Large T antigen
  IC50: 56.5 µM (active)
[7]
  IC50: > 50 µM (inactive)
[8]
  IC50: 7.54 µM (active)
